Reference: PubChem BioAssay AID1918998 (Molecular Pharmacology Branch, DTP, NCI, 2023)

Test system: 521955-158-R2-J5-PDC complex spheroid growth
Experiment: Anticancer human tumor 521955-158-R2-J5-PDC patient-derived pancreatic carcinoma cell line growth inhibition [AhR]
Settings: for IC50: curve of first compound; for viability, T/C: stronger effect = lower value
Outline: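 Agents were dosed in half-log steps down from roughly clinical Cmax, or from 10 microM where Cmax was unknown, alone and with AhR antagonists. Read-out: percent test/control growth of tumor spheroids containing HUVEC and MSC stromal cells.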

[1] = second compound 0.1 µM, first compound 0.0316 µM
[2] = second compound 0.1 µM, first compound 0.1 µM
[3] = second compound 0.1 µM, first compound 0.316 µM
[4] = second compound 0.1 µM, first compound 1 µM
[5] = second compound 0.1 µM, first compound 3.16 µM
[6] = second compound 0.1 µM, first compound 10 µM
[7] = second compound 0.316 µM, first compound 0.0316 µM
[8] = second compound 0.316 µM, first compound 0.1 µM
[9] = second compound 0.316 µM, first compound 0.316 µM
[10] = second compound 0.316 µM, first compound 1 µM
[11] = second compound 0.316 µM, first compound 3.16 µM
[12] = second compound 0.316 µM, first compound 10 µM
[13] = second compound 1 µM, first compound 0.0316 µM
[14] = second compound 1 µM, first compound 0.1 µM
[15] = second compound 1 µM, first compound 0.316 µM
[16] = second compound 1 µM, first compound 1 µM
[17] = second compound 1 µM, first compound 3.16 µM
[18] = second compound 1 µM, first compound 10 µM
[19] = second compound 3.16 µM, first compound 0.0316 µM
[20] = second compound 3.16 µM, first compound 0.1 µM
[21] = second compound 3.16 µM, first compound 0.316 µM
[22] = second compound 3.16 µM, first compound 1 µM
[23] = second compound 3.16 µM, first compound 3.16 µM
[24] = second compound 3.16 µM, first compound 10 µM
[25] = second compound 10 µM, first compound 0.0316 µM
[26] = second compound 10 µM, first compound 0.1 µM
[27] = second compound 10 µM, first compound 0.316 µM
[28] = second compound 10 µM, first compound 1 µM
[29] = second compound 10 µM, first compound 3.16 µM
[30] = second compound 10 µM, first compound 10 µM
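Wherever viability, T/C is given: spheroids mix tumor cells with HUVEC endothelium and human MSC stroma; luminescence taken as viability surrogate after a week of drug exposure.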

## CC(C)CC(NC(=O)C(Cc1ccccc1)NC(=O)c1cnccn1)B(O)O (stereo not given) + CC(CO)NC(=O)c1cc(-c2ccc(Cl)cc2)nn(-c2cnn(C)c2)c1=O
Second compound 0.1 µM
  IC50: 0.00438 µM
Second compound 0.316 µM
  IC50: 0.00536 µM
Second compound 1 µM
  IC50: 0.00434 µM
Second compound 3.16 µM
  IC50: 0.00486 µM
Second compound 10 µM
  IC50: 0.00416 µM
Second compound 0.1 µM, first compound 0.000949 µM
  viability, T/C: 78.8%
Second compound 0.1 µM, first compound 0.003 µM
  viability, T/C: 71.6%
Second compound 0.1 µM, first compound 0.00949 µM
  viability, T/C: 5.92%
Second compound 0.1 µM, first compound 0.03 µM
  viability, T/C: 2.45%
Second compound 0.1 µM, first compound 0.0949 µM
  viability, T/C: 2%
Second compound 0.1 µM, first compound 0.3 µM
  viability, T/C: 0.19%
Second compound 0.316 µM, first compound 0.000949 µM
  viability, T/C: 103%
Second compound 0.316 µM, first compound 0.003 µM
  viability, T/C: 94.7%
Second compound 0.316 µM, first compound 0.00949 µM
  viability, T/C: 6.1%
Second compound 0.316 µM, first compound 0.03 µM
  viability, T/C: 1.23%
Second compound 0.316 µM, first compound 0.0949 µM
  viability, T/C: 0.12%
Second compound 0.316 µM, first compound 0.3 µM
  viability, T/C: 1.89%
Second compound 1 µM, first compound 0.000949 µM
  viability, T/C: 113%
Second compound 1 µM, first compound 0.003 µM
  viability, T/C: 70.6%
Second compound 1 µM, first compound 0.00949 µM
  viability, T/C: 6.39%
Second compound 1 µM, first compound 0.03 µM
  viability, T/C: 2.84%
Second compound 1 µM, first compound 0.0949 µM
  viability, T/C: 0.51%
Second compound 1 µM, first compound 0.3 µM
  viability, T/C: 0.29%
Second compound 3.16 µM, first compound 0.000949 µM
  viability, T/C: 83.5%
Second compound 3.16 µM, first compound 0.003 µM
  viability, T/C: 81.6%
Second compound 3.16 µM, first compound 0.00949 µM
  viability, T/C: 6.11%
Second compound 3.16 µM, first compound 0.03 µM
  viability, T/C: 0.25%
Second compound 3.16 µM, first compound 0.0949 µM
  viability, T/C: 1.98%
Second compound 3.16 µM, first compound 0.3 µM
  viability, T/C: 1.99%
Second compound 10 µM, first compound 0.000949 µM
  viability, T/C: 68.2%
Second compound 10 µM, first compound 0.003 µM
  viability, T/C: 68.3%
Second compound 10 µM, first compound 0.00949 µM
  viability, T/C: 3.86%
Second compound 10 µM, first compound 0.03 µM
  viability, T/C: 0.37%
Second compound 10 µM, first compound 0.0949 µM
  viability, T/C: 0.52%
Second compound 10 µM, first compound 0.3 µM
  viability, T/C: 1.58%

## COc1cc(C2c3cc4c(cc3C(OC3OC5COC(C)OC5C(O)C3O)C3COC(=O)C23)OCO4)cc(OC)c1O (stereo not given) + CC(CO)NC(=O)c1cc(-c2ccc(Cl)cc2)nn(-c2cnn(C)c2)c1=O
Second compound 0.1 µM
  IC50: 1.06 µM
Second compound 0.316 µM
  IC50: 1.16 µM
Second compound 1 µM
  IC50: 0.916 µM
Second compound 3.16 µM
  IC50: 0.698 µM
Second compound 10 µM
  IC50: 0.422 µM
[1]
  viability, T/C: 85%
[2]
  viability, T/C: 78%
[3]
  viability, T/C: 91.8%
[4]
  viability, T/C: 51.4%
[5]
  viability, T/C: 29.3%
[6]
  viability, T/C: 17%
[7]
  viability, T/C: 92.3%
[8]
  viability, T/C: 102%
[9]
  viability, T/C: 87.5%
[10]
  viability, T/C: 53.4%
[11]
  viability, T/C: 25.5%
[12]
  viability, T/C: 16.6%
[13]
  viability, T/C: 98%
[14]
  viability, T/C: 98.3%
[15]
  viability, T/C: 95.7%
[16]
  viability, T/C: 46.1%
[17]
  viability, T/C: 24.5%
[18]
  viability, T/C: 20.6%
[19]
  viability, T/C: 93.5%
[20]
  viability, T/C: 87.5%
[21]
  viability, T/C: 91.9%
[22]
  viability, T/C: 31.4%
[23]
  viability, T/C: 23.6%
[24]
  viability, T/C: 22.8%
[25]
  viability, T/C: 76.3%
[26]
  viability, T/C: 71.4%
[27]
  viability, T/C: 55.3%
[28]
  viability, T/C: 33.3%
[29]
  viability, T/C: 20.4%
[30]
  viability, T/C: 14.2%

## O=C(c1cc(Cc2n[nH]c(=O)c3ccccc23)ccc1F)N1CCN(C(=O)C2CC2)CC1 + Cc1cncc(-c2nc(NCCc3c[nH]c4ccccc34)c3ncn(C(C)C)c3n2)c1
Second compound 0.1 µM
  IC50: > 10 µM
Second compound 0.316 µM
  IC50: > 10 µM
Second compound 1 µM
  IC50: > 10 µM
Second compound 3.16 µM
  IC50: > 10 µM
Second compound 10 µM
  IC50: > 10 µM
[1]
  viability, T/C: 106%
[2]
  viability, T/C: 97.8%
[3]
  viability, T/C: 113%
[4]
  viability, T/C: 106%
[5]
  viability, T/C: 98%
[6]
  viability, T/C: 92.4%
[7]
  viability, T/C: 101%
[8]
  viability, T/C: 114%
[9]
  viability, T/C: 109%
[10]
  viability, T/C: 102%
[11]
  viability, T/C: 86.9%
[12]
  viability, T/C: 99.5%
[13]
  viability, T/C: 119%
[14]
  viability, T/C: 116%
[15]
  viability, T/C: 115%
[16]
  viability, T/C: 99.4%
[17]
  viability, T/C: 104%
[18]
  viability, T/C: 89.2%
[19]
  viability, T/C: 142%
[20]
  viability, T/C: 133%
[21]
  viability, T/C: 121%
[22]
  viability, T/C: 135%
[23]
  viability, T/C: 115%
[24]
  viability, T/C: 126%
[25]
  viability, T/C: 139%
[26]
  viability, T/C: 156%
[27]
  viability, T/C: 167%
[28]
  viability, T/C: 117%
[29]
  viability, T/C: 114%
[30]
  viability, T/C: 123%
